Source: publication PMC10046961, “High-Throughput Screening Assay for Detecting Drug-Induced Changes in Synchronized Neuronal Oscillations and Potential Seizure Risk Based on Ca^2+ Fluorescence Measurements in Human Induced Pluripotent Stem Cell (hiPSC)-Derived Neuronal 2D and 3D Cultures” (Cells, 2023)
Read-outs that look alike come from different tables or passages of the source. Marks after values point to notes of the source that are not given here.

Key:
[1] = system: hiPSC-derived neurons co-cultured with human primary astrocytes in 2D; experiment: Ca2+ transient oscillation assay (FDSS), 2D co-culture; type: cell-based; conditions: for activation at 0.11 µM / activation at 0.33 µM / activation at 1 µM / activation at 3 µM / activation at 1.11 µM / activation at 3.33 µM / activation at 10 µM / activation at 30 µM: Homo sapiens, 1 h, 60 min
Description: (§1) In this study, we used cryopreserved excitatory neurons that were differentiated from human induced pluripotent stem cells (hiPSCs; Cat #: EX-SeV-CW50065) (Elixirgen Scientific, Inc., Baltimore, MD, USA). The hiPSCs used, namely, CW50065 were derived from a healthy person and distributed by the California Institute of Regenerative Medicine Human Induced Pluripotent Stem Cell Repository. Human iPSC-derived excitatory neurons were differentiated from CW50065 using a proprietary cocktail of differentiation-inducing factors called Quick-Neuron™ EX-SeV (Batch number: EX-SeV-CW50065-L; Elixirgen Scientific, Inc.), cryopreserved 3 days after differentiation induction and distributed. Human iPSC-derived excitatory neurons were recovered from cryopreservation and maintained essentially as instructed by the manufacturer.
(§2) Cryopreserved human primary astrocytes (#N7805100, Thermo Fisher Scientific, Waltham, MA, USA) were recovered as instructed by the manufacturer and seeded in a 10 cm dish at the density of 2,000,000 cells. The culture was maintained using the Human Astrocytes Kit (#N7805200, Thermo Fisher Scientific) for 12 days. Half of the culture medium was replaced with fresh medium every 2–3 days during the culture period. These astrocytes were harvested using StemPro™ Accutase™ Cell Dissociation Reagent (#A1110501, Thermo Fisher Scientific) when they reached confluency. These cells were cryopreserved in STEM-CELLBANKER® GMP grade (ZENOGEN PHARMA, Kohriyama, Fukushima Japan) at the density of 2,000,000 cells per vial as working stocks for co-culture with neurons in 2D and 3D conditions described below. After a working stock was recovered, astrocytes were directly mixed with hiPSC-derived neurons for plating without further expansion.
Live neurons (hiPSC neurons) and human primary astrocytes were recovered from cryopreservation as described above and seeded in each well of 384-well plates at the density of 10,000 cells (HiPSC-cortical neurons) and human primary astrocytes at 2500 cells (ratio 4:1). These co-cultures were maintained under the medium conditions recommended by the manufacturer, namely Medium N(G2P), to complete the differentiation of excitatory neurons for the first week. […] Half of the culture medium was replaced with fresh medium every 3–4 days during the culture period.
After the incubation, the culture medium containing Cal-520 was replaced with 50 μL of HBSS supplemented with 0.1 mM MgCl2, 2 mM CaCl2, 10 mM HEPES, and 10 mM glucose and incubated at 37 ℃ for 15 min.
(§3) Prior to the fluorescence measurements, all wells to be measured were treated with 0.04% dimethyl sulfoxide (DMSO) to stabilize the oscillation signal. The first recording started 10 min after the addition of DMSO for each plate for 20 min. The effects of the test compound were recorded again starting 60 min after the administration of compounds, for 20 min.
Twenty-five compounds (Table 1) were first dissolved in either DMSO (most compounds) or distilled water depending on the compound, and further diluted with PBS to produce stock solutions concentrated 10-fold. […] The final concentration of DMSO was adjusted to 0.1%. Changes in the fluorescence intensity (FI) produced by Ca^2+ flux were measured at 37 °C for all wells of a 384-well plate simultaneously using the FDSS/µCell system (#C13299, Hamamatsu Photonics, Hamamatsu, Shizuoka, Japan). The excitation and the emission wavelengths were 470 nm and 540 nm, respectively. The recording duration was 20 min with a sampling frequency of 2 Hz for cells cultured under 2D conditions and 10 Hz for cells cultured under 3D conditions.

[2] = system: hiPSC-derived neurons co-cultured with human primary astrocytes in 3D; experiment: Ca2+ transient oscillation assay (FDSS), 3D spheroids; type: cell-based; conditions: 60 min
Description: as §1, §2
We used U-shaped-bottom 96-well plates (#174925, Thermo Fisher Scientific) without any prior coating to make a spheroid in each well. Neurons and astrocytes were seeded and maintained as described for 2D cultures, except for the following modifications. First, neurons and astrocytes were seeded in each well of the 96-well plates at the density of 8000 hiPSC neurons with 8000 human primary astrocytes (8000)/well (ratio 1:1). Second, when the differentiation of excitatory neurons was completed one week after seeding, cells were fed with BrainPhys^TM Neuronal Medium (#05793, […] Technologies, Vancouver, BC, Canada) supplemented with 2% SM1 Neuronal Supplement, 1% N2 Supplement-A, and 10% Neuron culture medium for 5 weeks.
Cells maintained as spheroids (3D) in the U-shaped-bottom 96-well plates were transferred into 384-well spheroid plates (#4516, Merck, Corning, NY, USA) with 25 µL of the culture medium. A Ca^2+-indicating dye solution including […] was prepared using the EarlyTox™ Cardiotoxicity Kit (#R8211, Molecular Devices, LLC, San Jose, CA, USA) according to the manufacturer. Then, the same volume of the dye solution was dispensed into each well.
as §3
Twenty-five compounds (Table 1) were first dissolved in either DMSO (most compounds) or distilled water depending on the compound, and further diluted with PBS to produce stock solutions concentrated 10-fold. Then, 5 μL of each compound solution was injected into each well using an automatic pipetting robot (#4505, ASSIST PLUS pipetting robot, Integra Biosciences Corp., Hudson, NH, USA), so that the final concentration of each compound was 1-fold nominal in the well.

[3] = read-out: Area under the curve - 2D Mean
[4] = read-out: Peak amplitude - 2D Mean
[5] = read-out: Peak-to-peak interval - 2D Mean

Compound: C[C@]12N[C@H](Cc3ccccc31)c1ccccc12 [MK-801, Dizocilpine]
- activation at 0.11 µM [1, 3]: -35.7%
- activation at 0.11 µM ([1]; read-out: Peak Number—2D Mean): -82.8%
- activation at 0.11 µM [1, 4]: -41.8%
- activation at 0.11 µM ([1]; read-out: Peak width - 2D Mean): -3.2%
- activation at 0.11 µM [1, 5]: 204%
- activation at 0.33 µM [1, 3]: -57%
- activation at 0.33 µM ([1]; read-out: Peak Number—2D Mean): -90.4%
- activation at 0.33 µM [1, 4]: -63.6%
- activation at 0.33 µM ([1]; read-out: Peak width - 2D Mean): -23.6%
- activation at 0.33 µM [1, 5]: 3.6%
- activation at 1 µM [1, 3]: -57.4%
- activation at 1 µM ([1]; read-out: Peak Number—2D Mean): -84.6%
- activation at 1 µM [1, 4]: -58.6%
- activation at 1 µM ([1]; read-out: Peak width - 2D Mean): -32.8%
- activation at 1 µM [1, 5]: -57.4%
- activation at 3 µM [1, 3]: -79.8%
- activation at 3 µM ([1]; read-out: Peak Number—2D Mean): -96.3%
- activation at 3 µM [1, 4]: -79.7%
- activation at 3 µM ([1]; read-out: Peak width - 2D Mean): -70%
- activation at 3 µM [1, 5]: -100%
- Area under the curve - 3D Mean ([2]; 0.11 µM): 127.3 % change from baseline
- Peak Number—3D Mean ([2]; 0.11 µM): −49.1 * % change from baseline
- Peak amplitude - 3D Mean ([2]; 0.11 µM): 104.7 % change from baseline
- Peak width - 3D Mean ([2]; 0.11 µM): 8.0 % change from baseline
- Peak-to-peak interval - 3D Mean ([2]; 0.11 µM): 76.1 % change from baseline
- Area under the curve - 3D Mean ([2]; 0.33 µM): 66.6 % change from baseline
- Peak Number—3D Mean ([2]; 0.33 µM): −67.3 ** % change from baseline
- Peak amplitude - 3D Mean ([2]; 0.33 µM): 76.2 % change from baseline
- Peak width - 3D Mean ([2]; 0.33 µM): −29.3 % change from baseline
- Peak-to-peak interval - 3D Mean ([2]; 0.33 µM): 66.4 % change from baseline
- Area under the curve - 3D Mean ([2]; 1 µM): -66.9 % change from baseline
- Peak Number—3D Mean ([2]; 1 µM): −97.2 ** % change from baseline
- Peak amplitude - 3D Mean ([2]; 1 µM): −64.1 % change from baseline
- Peak width - 3D Mean ([2]; 1 µM): −85.8 % change from baseline
- Peak-to-peak interval - 3D Mean ([2]; 1 µM): −100.0 % change from baseline
- Area under the curve - 3D Mean ([2]; 3 µM): 41.0 % change from baseline
- Peak Number—3D Mean ([2]; 3 µM): −84.8 ** % change from baseline
- Peak amplitude - 3D Mean ([2]; 3 µM): 67.2 % change from baseline
- Peak width - 3D Mean ([2]; 3 µM): −36.8 % change from baseline
- Peak-to-peak interval - 3D Mean ([2]; 3 µM): −100.0 % change from baseline

Compound: OC(c1cc(C(F)(F)F)nc2c(C(F)(F)F)cccc12)C1CCCCN1 (stereo not drawn) [Mefloquine]
- effect on peak number / Ca2+ neuronal oscillations, in words ([1]; 2D format): significantly reduced peak number
- activation at 1.11 µM [1, 3]: 14.8%
- activation at 1.11 µM ([1]; read-out: Peak Number—2D Mean): -30.8%
- activation at 1.11 µM [1, 4]: 0.5%
- activation at 1.11 µM ([1]; read-out: Peak width - 2D Mean): 15.8%
- activation at 1.11 µM [1, 5]: 25%
- activation at 3.33 µM [1, 3]: -47.2%
- activation at 3.33 µM ([1]; read-out: Peak Number—2D Mean): 16.2%
- activation at 3.33 µM [1, 4]: -21.2%
- activation at 3.33 µM ([1]; read-out: Peak width - 2D Mean): -47%
- activation at 3.33 µM [1, 5]: 48.2%
- activation at 10 µM [1, 3]: -100%
- activation at 10 µM ([1]; read-out: Peak Number—2D Mean): -100%
- activation at 10 µM [1, 4]: -100%
- activation at 10 µM ([1]; read-out: Peak width - 2D Mean): -100%
- activation at 10 µM [1, 5]: -100%
- activation at 30 µM [1, 3]: -100%
- activation at 30 µM ([1]; read-out: Peak Number—2D Mean): -100%
- activation at 30 µM [1, 4]: -100%
- activation at 30 µM ([1]; read-out: Peak width - 2D Mean): -100%
- activation at 30 µM [1, 5]: -100%
- Area under the curve - 3D Mean ([2]; 1.11 µM): 159.0 % change from baseline
- Peak Number—3D Mean ([2]; 1.11 µM): 2.8 % change from baseline
- Peak amplitude - 3D Mean ([2]; 1.11 µM): 149.7 % change from baseline
- Peak width - 3D Mean ([2]; 1.11 µM): 2.6 % change from baseline
- Peak-to-peak interval - 3D Mean ([2]; 1.11 µM): 7.1 % change from baseline
- Area under the curve - 3D Mean ([2]; 3.33 µM): 143.4 % change from baseline
- Peak Number—3D Mean ([2]; 3.33 µM): −11.1 % change from baseline
- Peak amplitude - 3D Mean ([2]; 3.33 µM): 139.0 % change from baseline
- Peak width - 3D Mean ([2]; 3.33 µM): 1.4 % change from baseline
- Peak-to-peak interval - 3D Mean ([2]; 3.33 µM): 1.7 % change from baseline
- Area under the curve - 3D Mean ([2]; 10 µM): 135.6 % change from baseline
- Peak Number—3D Mean ([2]; 10 µM): 7.2 % change from baseline
- Peak amplitude - 3D Mean ([2]; 10 µM): 135.0 % change from baseline
- Peak width - 3D Mean ([2]; 10 µM): −1.5 % change from baseline
- Peak-to-peak interval - 3D Mean ([2]; 10 µM): 12.8 % change from baseline
- Area under the curve - 3D Mean ([2]; 30 µM): 74.4 % change from baseline
- Peak Number—3D Mean ([2]; 30 µM): −3.7 % change from baseline
- Peak amplitude - 3D Mean ([2]; 30 µM): 99.9 % change from baseline
- Peak width - 3D Mean ([2]; 30 µM): −10.9 % change from baseline
- Peak-to-peak interval - 3D Mean ([2]; 30 µM): 8.3 % change from baseline
